From patent US20220008451A1, “FLAVIN ADENINE DINUCLEOTIDE (FAD) FOR USE IN THE PREVENTION AND/OR TREATMENT OF CANCER” (priority 2018, published 2022)

Legend:
MIA Paca-2 cells = experiment: MIA Paca-2 MTT viability test; format: cell-based, human; settings: 120 μM/L, 2 hours
Procedure: (§1) MIA Paca-2 cells are human pancreatic cancer cells [American Tissue Cell Culture (ATCC, Manassas, Va., USA)] cultured in DMEM medium. The MTT viability test is performed at a cell density of 0.1×10*6 cells/mL. The tested products are incubated for 2 hours at a concentration of 120 μM/L and in triplicate, with culture control (ref: Blank) (100%) and a positive DMSO control (5%). Under these conditions, cell viability is 34% in the presence of FAD alone, 6% with FAD-PEG.

[1] = MIA Paca-2 MTT viability test; format: cell-based, human; settings: human, MIA Paca-2 cells, read-out: cell viability
Procedure: as §1

[2] = system: Nucleo PyroPhosphatase enzyme; experiment: Protection of FAD against Nucleo PyroPhosphatase hydrolysis (HPLC); format: in vitro ADME; settings: 25° C.
Procedure: FAD protection in particles in comparison with unbound FAD is studied. Different particles containing FAD are compared to unbound FAD: • The FAD encapsulated with a gold FAD-PEG particle ON is obtained by the ON method described in example 2. • The FAD encapsulated with a gold-FAD-PEG particle IN is obtained by the IN method obtained in example 1. The different particles and the unbound FAD are each placed in a solution of the Nucleo PyroPhosphatase enzyme at 25° C. The concentration of the FAD is monitored over time by HPLC assay.

[3] = system: MiaPaCA2 pancreatic cancer; experiment: Viability of MiaPaCA2 cells (Example 14); format: cell-based
[4] = system: HepG2 hepatocellular carcinoma; experiment: Viability of HepG2 cells; format: cell-based; settings: Homo sapiens
[5] = Resistance to hydrolysis in serum; format: in vitro ADME; settings: 20 hours
Procedure: A comparative hydrolysis test of unbound FAD and micrometer-sized FAD-PEG obtained in Example 7 is performed in serum to test resistance to enzymes.

[6] = system: murine breast cancer cell line 4T1; experiment: 4T1 breast cancer model in mice; format: in vivo, BALB/c mice; settings: compared to control groups
[7] = system: HT-1080 fibrosarcoma cells; experiment: Viability of HT-1080 cells; format: cell-based; settings: Homo sapiens
DNA aptamer = experiment: Intercalation in DNA aptamer grafted on gold nanoparticles; format: binding; settings: 5 mg/ml, UV visible and RAMAN
Text: Small molecules with aromatic structures are intercalated into DNA, which is the case of some extremely powerful and effective drugs. The hypothesis that FAD intercalates into DNA has been tested using a DNA aptamer grafted onto the surface of nanoparticles (NP).
The aptamer used is a single-stranded, thiolated DNA sequence of formula 5′HS-TT TTTTTTTTTTTTTTCTTCTCTAGCTGAATAACCGGAAGTAACTCATCGTTTCGATGAGTTACTTCCGGTTATTCAGCTAGAGAAG 3′, grafted to the surface of gold nanoparticles in the presence of a catalyst agent (N-[3-(dimethylamino) propyl]-N′-ethylcarbodiimide/N-hydroxysuccinimide, Sigma-Aldrich) (EDC/NHS), 50 μL, of DNA with a ratio (40 mg/10 mg) to 5 ml of gold NP solution, to allow activation of the carboxylic group (PEG-COOH) on the surface of the nanoparticles for immobilisation of the aptamer by covalent bonds. The bond is made between the carboxyl group of the EDC/NHS-activated PEG and the NH2 groups of the aptamer.
The grafting of the DNA on the surface of the gold nanoparticles is verified by UV spectroscopy (UV-visible absorbance measurements).
The particles were then placed in the presence of FAD or FAG-PEG (5 mg/ml, two formulations) and DNA intercalation, detected and measured by two techniques: UV visible and by RAMAN spectroscopy.

[8] = system: Mouse HEP 1-6 liver cancer cells; experiment: HEP 1-6 liver cancer model in mice; format: in vivo
cancer cells in culture = experiment: Growth inhibition of cancer cells in culture; format: cell-based; settings: read-out: inhibitory concentration (IC50) reducing growth of cancer cells in culture by 50%
[9] = system: CEM (myeloid leukaemia) cells; experiment: Viability of CEM myeloid leukaemia cells; format: cell-based; settings: 48 hours incubation; read-out: mean IC50, viability of cancer cells in the lineage
[10] = system: HT22 cells (murine brain tumour); experiment: HT22 growth inhibition, MTS test; format: cell-based
Procedure: HT22 cells (murine brain tumour) are tested with the gold-FAD-PEG particle obtained by the IN method.

[11] = system: Monocytes isolated from peripheral blood (PBMC); experiment: Viability of non-cancerous peripheral blood monocytes (PBMC); format: cell-based
Huh-7replicon = experiment: Viability of Huh-7replicon cells; format: cell-based
[12] = system: MCF7 (breast cancer) cancer cells; experiment: MCF7 growth inhibition, MTS test; format: cell-based; settings: 48 hours
Procedure: Growth inhibition of MCF7 (breast cancer) cancer cells is tested on MCF7 cells in culture for 48 hours in contact with the gold-FAD-PEG particle with or without a targeting agent obtained by the IN method. […] (Promega—Cell Titer Proliferation Assay).

Question: Which cell viability (MIA Paca-2 cells) does the source give for `C[S+](C)[O-]` [DMSO, reference compound] here?
Answer: 5%

Question: Which viability at 2 hours, 120 μM/L [1] does the source give for `Cc1cc2nc3c(=O)[nH]c(=O)nc-3n(CC(O)C(O)C(O)COP(=O)(O)OP(=O)(O)OC[C@H]3O[C@@H](n4cnc5c(N)ncnc54)C(O)C3O)c2cc1C` (stereo partly drawn) [FAD, Flavin Adenine Dinucleotide] here?
Answer: 34%

Question: And the “time to full hydrolysis of FAD” value [2]?
Answer: ≤ 15 min

Question: And the “viability of the cells” value ([3]; 90 μM, 24 hours of exposure)?
Answer: significantly altered

Question: What about the IC50 ([3]; Homo sapiens, MIA PaCa-2, MiaPaCA2) of the same compound?
Answer: 10000 nM

Question: And the IC50 [4]?
Answer: 1100 to 1800 nM

Question: And the hydrolysis in serum [5]?
Answer: almost completely hydrolyzed

Question: What about the IL-10 content [6] of the same compound?
Answer: significantly increased

Question: What about the “level of IL-1α” value [6] of the same compound?
Answer: significantly reduced

Question: And the “level of IL-1 β” value [6]?
Answer: significantly reduced

Question: And the “level of IL-6” value [6]?
Answer: significantly reduced

Question: What about the “level of IL-12P70” value [6] of the same compound?
Answer: significantly reduced

Question: And the “level of TNF α” value [6]?
Answer: significantly reduced

Question: And the IC50 [7]?
Answer: 1100 to 1800 nM

Question: What about the DNA intercalation (DNA aptamer) of the same compound?
Answer: intercalates to DNA

Question: What about the “reduction in tumour volume” value [8] of the same compound?
Answer: 24%

Question: What about the IC50 (cancer cells in culture) of the same compound?
Answer: 500 to 5000 nM

Question: What about the IC50 [9] of the same compound?
Answer: 1600 nM

Question: What about the IC50 ([10]; Mus musculus, HT-22, Example 14, read-out: IC50, viability of HT22 neuronal cancer cells) of the same compound?
Answer: 1600 nM

Question: And the IC50 ([11]; 48 hours incubation, read-out: IC50, viability of primary non-cancerous cells)?
Answer: > 100000 nM

Question: What about the GI50 ([11]; normal blood monocytes PBM cells) of the same compound?
Answer: > 100000 nM

Question: What about the IC50 (Huh-7replicon) of the same compound?
Answer: 1100 to 1800 nM

Question: What does the source list for `CN[C@@H]1C[C@H]2O[C@@](C)([C@@H]1OC)n1c3ccccc3c3c4c(c5c6ccccc6n2c5c31)C(=O)NC4` [staurosporin, reference compound]?
Answer: GI50 [12]: ~40000 nM; GI50 ([10]; read-out: 50% growth inhibition (GI 50), 48 hours, MTS): 2700 nM
